Structures are written as SMILES.

What all share (assay type): cell-based
Assay [1] has as its target T1, human PPARα (166–467aa) ligand binding domain (Homo sapiens, UniProt Q07869).
T1 construct: human PPARα (166–467aa); expressed in transfected cells; host or cells: COS-7
T1 sequence (Q07869 166-467): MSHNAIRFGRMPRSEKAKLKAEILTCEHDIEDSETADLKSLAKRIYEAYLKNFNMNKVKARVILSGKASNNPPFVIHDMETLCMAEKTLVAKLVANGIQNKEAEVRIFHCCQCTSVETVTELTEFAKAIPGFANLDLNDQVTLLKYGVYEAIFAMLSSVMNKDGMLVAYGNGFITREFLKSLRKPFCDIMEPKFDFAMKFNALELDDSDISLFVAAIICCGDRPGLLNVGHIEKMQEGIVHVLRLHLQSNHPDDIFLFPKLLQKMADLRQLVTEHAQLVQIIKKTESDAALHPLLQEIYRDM
The assay can be described thus: PPAR transfection (Gal4-LBD luciferase reporter) assay, hPPARα. The note with it: transfected COS-7 cells, 16 hours, luciferase activity; read-out: hPPAR; EC50 α (agonist activity). How it is done:
(§1) COS-7 cells, which is African green monkey kidney cell line, were used for all transfection assays. Cells were cultured in DMEM medium supplemented with 10% fetal bovine serum, glutamic acid, and an antibiotic under humidified 5% CO2 atmosphere.
(§2) Cells were transfected by lipofectamine reagent with a mixture containing expression plasmid, firefly luciferase reporter plasmid. And a β-galactosidase expression plasmid used as an internal control for transfection efficiency.
(§3) Transiently transfected cells were incubated with DMEM with 0.2% FCS with or without compound. And after 16 hours, luciferase activity and β-galactosidase activity of cell lysate were measured.
(§4) Each compound was dissolved in and diluted with dimethyl sulfoxide (DMSO), and the DMSO concentration of the DMEM medium (containing 0.2% serum) was adjusted to 0.1% upon treatment of cells.

Assay [2] concerns the target T2, human PPARγ (182–505aa) ligand binding domain (Homo sapiens, UniProt P37231).
T2 construct: γ(182–505aa); expressed in transfected cells; host or cells: COS-7
T2 sequence (P37231 182-505): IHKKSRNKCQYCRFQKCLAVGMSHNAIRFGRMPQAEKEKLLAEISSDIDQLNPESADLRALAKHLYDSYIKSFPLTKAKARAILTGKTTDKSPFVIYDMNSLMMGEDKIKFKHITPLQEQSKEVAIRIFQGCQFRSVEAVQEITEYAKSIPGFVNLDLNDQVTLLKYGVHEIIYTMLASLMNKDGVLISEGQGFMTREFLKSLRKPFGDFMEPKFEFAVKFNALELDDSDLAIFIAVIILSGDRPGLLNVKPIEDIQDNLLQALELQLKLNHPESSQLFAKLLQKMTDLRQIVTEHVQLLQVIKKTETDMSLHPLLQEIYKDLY
The assay can be described thus: PPAR transfection (Gal4-LBD luciferase reporter) assay, hPPARγ. The note with it: for EC50: transfected COS-7 cells, 16 hours, luciferase activity, read-out: hPPAR, EC50 γ (agonist activity); for activation factor, hPPARγ (FIGS. 1 to 5): at 10-fold concentration of EC50 value in activation of hPPARα, ratio to DMSO control. Here is the method: as §1, §2, §3, §4
A general note: A reporter such as luciferase makes a cellular process visible.

Assay [3] concerns the target T3, human PPARδ (137–441aa) ligand binding domain (Homo sapiens, UniProt Q03181).
T3 construct: δ (137–441aa); expressed in transfected cells; host or cells: COS-7
T3 sequence (Q03181 137-441): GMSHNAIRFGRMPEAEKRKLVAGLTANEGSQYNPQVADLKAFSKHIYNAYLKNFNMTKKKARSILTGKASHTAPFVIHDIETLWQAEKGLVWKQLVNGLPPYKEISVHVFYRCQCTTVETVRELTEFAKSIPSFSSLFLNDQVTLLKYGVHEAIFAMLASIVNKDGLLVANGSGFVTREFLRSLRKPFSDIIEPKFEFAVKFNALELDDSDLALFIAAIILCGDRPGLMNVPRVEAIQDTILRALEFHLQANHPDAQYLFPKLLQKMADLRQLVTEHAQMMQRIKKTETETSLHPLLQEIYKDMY
The assay can be described thus: PPAR transfection (Gal4-LBD luciferase reporter) assay, hPPARδ. The note with it: for EC50: transfected COS-7 cells, 16 hours, luciferase activity, read-out: hPPAR, EC50 δ (agonist activity); for activation factor, hPPARδ (FIGS. 1 to 5): at 10-fold concentration of EC50 value in activation of hPPARα, ratio to DMSO control. How it is done: as §1, §2, §3, §4

On to `CCC(Oc1cccc(CCN(CCCOc2ccccc2)c2nc3cc(F)ccc3o2)c1)C(=O)O` (stereo not shown) [Example 39, 2-[3-[2-[N-(5-Fluorobenzoxazol-2-yl)-N-3-phenoxypropyl]aminoethyl]phenoxy]butyric acid], for which the EC50 was 80 nM in assay [1], 9100 nM in assay [2] and 1600 nM in assay [3].

For `CCC(Oc1cccc(CN(CCCOc2ccc(F)cc2)c2nc3ccc(F)cc3o2)c1)C(=O)O` (stereo not shown) [Example 140], the values for the EC50 in assay [1], in assay [2] and in assay [3] were 7 nM, 1300 nM and 1800 nM, respectively.

Regarding `CC(Oc1cccc(CN(CCCOc2cccc(N(C)C)c2)c2nc3ccccc3o2)c1)C(=O)O` (stereo not shown) [Example 19, 2-[3-[[N-(Benzoxazol-2-yl)-N-3-(3-dimethylaminophenoxy)propyl]aminomethyl]phenoxy]propionic acid], the EC50 in assay [1] is 0.1 nM; in assay [2], 1200 nM; in assay [3] it was greater than 100000 nM.

With `CCC(Oc1cccc(CN(CCCOc2ccccc2)c2nc3cc4c(cc3o2)OCO4)c1)C(=O)O` (stereo not shown) [Example 158], the EC50 stood at 5 nM in assay [1], 1600 nM in assay [2] and 1100 nM in assay [3].

Take `CCC(Oc1cccc(CN(CCOc2ccc(F)cc2)c2nc3ccccc3o2)c1)C(=O)O` (stereo not shown) [Example 3, 2-[3-[[N-(Benzoxazol-2-yl)-N-2-(4-fluorophenoxy)ethyl]aminomethyl]phenoxy]butyric acid]: the EC50 is 10 nM in assay [1], greater than 100000 nM in assay [2] and 1800 nM in assay [3].

Take `CC(C)(Oc1ccc(CCCN(CCc2ccccc2)C(=O)c2nc3ccccc3s2)cc1)C(=O)O` [Compound B, reference compound]: the EC50 is 120 nM in assay [1], 700 nM in assay [2] and 900 nM in assay [3]. Also, the “activation factor, hPPARγ (FIGS. 1 to 5)” value in assay [2] is reported as “strongly activate”. Moreover, the “activation factor, hPPARδ (FIGS. 1 to 5)” value in assay [3] is “strongly activate”.

Consider `CCC(Oc1cccc(CCN(CCCOc2ccc(F)cc2)c2nc3ccccc3o2)c1)C(=O)O` (stereo not shown) [Example 50, 2-[3-[2-[N-(Benzoxazol-2-yl)-N-3-(4-fluorophenoxy)propyl]aminoethyl]phenoxy]butyric acid], for which the EC50 in assay [1] is 40 nM; in assay [2], 2600 nM; in assay [3], 1400 nM.

Take `CC(Oc1cccc(CCN(CCOc2ccccc2)c2nc3cc(F)ccc3o2)c1)C(=O)O` (stereo not shown) [Example 43, 2-[3-[2-[N-(5-Fluorobenzoxazol-2-yl)-N-2-phenoxyethyl]aminoethyl]phenoxy]propionic acid]: the EC50 in assay [1] is 70 nM; in assay [2] it was greater than 100000 nM; in assay [3] it was 5300 nM.

For `Cc1ccc2oc(N(CCCOc3ccccc3)Cc3cccc(OC(C)C(=O)O)c3)nc2c1` (stereo not shown) [Example 155], the EC50 in assay [1] was 11 nM; in assay [2] it was greater than 10000 nM; in assay [3], 1800 nM.

For `CC(C)(Oc1ccc(CCCN(CCc2ccccc2)c2nc3ccccc3s2)cc1)C(=O)O` [Compound A], the results for the EC50 in assay [1], in assay [2] and in assay [3] were 100 nM, 200 nM and 400 nM, respectively. Further, in assay [2], the “activation factor, hPPARγ (FIGS. 1 to 5)” value is “strongly activate”. Besides, in assay [3], the “activation factor, hPPARδ (FIGS. 1 to 5)” value is given as “strongly activate”.

Take `CC(Oc1cccc(CCN(CCOc2ccccc2)c2nc3ccccc3o2)c1)C(=O)O` (stereo not shown) [Example 31, 2-[3-[2-[N-(Benzoxazol-2-yl)-N-2-phenoxyethyl]aminoethyl]phenoxy]propionic acid]: the EC50 was 90 nM in assay [1], greater than 100000 nM in assay [2] and greater than 50000 nM in assay [3].

On to `COc1ccc2oc(N(CCCOc3ccc(Cl)cc3)Cc3cccc(OC(C)C(=O)O)c3)nc2c1` (stereo not shown) [Example 206], for which the EC50 in assay [1] was found to be 10 nM; in assay [2], 1400 nM; in assay [3], 1700 nM.

Turning to `Cc1ccc2oc(N(CCCOc3ccc(F)cc3)Cc3cccc(OC(C)C(=O)O)c3)nc2c1` (stereo not shown) [Example 153], the EC50 in assay [1] amounted to 3 nM; in assay [2], 2500 nM; in assay [3] it was 1400 nM.

Source of the values: patent US7183295B2, “PPAR-activating compound and pharmaceutical composition comprising the compound” (Kowa Co., Ltd., priority 2003, dated 2007).
